Data from ChEMBL document CHEMBL1165865, “Design, synthesis and determination of antifungal activity of 5(6)-substituted benzotriazoles” (2010).
Values after ≈ are worked out from the molar mass of the structure shown.

Legend:
Type in all cases: functional
[1] = tested on: Candida albicans; experiment: Antifungal activity against Candida albicans ATCC 90028 after 24 hrs by macrodilution method; settings: ATCC 90028, 24 h
[2] = tested on: Nakaseomyces glabratus; experiment: Antifungal activity against Candida glabrata ATCC 3916 after 24 hrs by macrodilution method; settings: ATCC 3916, 24 h
[3] = tested on: Pichia kudriavzevii; experiment: Antifungal activity against Candida krusei ATCC 30068 after 24 hrs by macrodilution method; settings: ATCC 30068, 24 h
[4] = tested on: Candida parapsilosis; experiment: Antifungal activity against Candida parapsilosis ATCC 22019 after 24 hrs by macrodilution method; settings: Lodderomyces parapsilosis, ATCC 22019, 24 h
[5] = tested on: Saccharomyces cerevisiae; experiment: Antifungal activity against Saccharomyces cerevisiae DSMZ 1333 after 24 hrs by macrodilution method; settings: DSMZ 1333, 24 h
[6] = tested on: Aspergillus niger; experiment: Antifungal activity against Aspergillus niger DSMZ 737 after 24 hrs by macrodilution method; settings: DSMZ 737, 24 h

Structure (SMILES)	MIC [1]	MIC [2]	MIC [3]	MIC [4]	MIC [5]	MIC [6]
Cc1ccc2c(c1)nnn2CC(O)(Cn1cncn1)c1ccc(F)cc1F (racemic)	12.5 µg/mL (≈ 33.8 µM)	25 µg/mL (≈ 67.5 µM)	25 µg/mL (≈ 67.5 µM)	12.5 µg/mL (≈ 33.8 µM)	6.2 µg/mL (≈ 16.7 µM)	50 µg/mL (≈ 135 µM)
O=[N+]([O-])c1ccc2nnn(CC(O)(Cn3cncn3)c3ccc(F)cc3F)c2c1 (racemic)	50 µg/mL (≈ 125 µM)	> 100 µg/mL	> 100 µg/mL	100 µg/mL (≈ 249 µM)	100 µg/mL (≈ 249 µM)	100 µg/mL (≈ 249 µM)
OC(Cn1cncn1)(Cn1nnc2cccnc21)c1ccc(F)cc1F (racemic)	6.2 µg/mL (≈ 17.4 µM)	100 µg/mL (≈ 280 µM)	100 µg/mL (≈ 280 µM)	25 µg/mL (≈ 70 µM)	50 µg/mL (≈ 140 µM)	100 µg/mL (≈ 280 µM)
OC(Cn1cncn1)(Cn1nnc2cc(F)ccc21)c1ccc(F)cc1F (racemic)	25 µg/mL (≈ 66.8 µM)	25 µg/mL (≈ 66.8 µM)	50 µg/mL (≈ 134 µM)	3.1 µg/mL (≈ 8.28 µM)	12.5 µg/mL (≈ 33.4 µM)	100 µg/mL (≈ 267 µM)
O=[N+]([O-])c1ccc2c(c1)nnn2CC(O)(Cn1cncn1)c1ccc(F)cc1F (racemic)	1.6 µg/mL (≈ 3.99 µM)	100 µg/mL (≈ 249 µM)	50 µg/mL (≈ 125 µM)	6.2 µg/mL (≈ 15.4 µM)	12.5 µg/mL (≈ 31.1 µM)	100 µg/mL (≈ 249 µM)
OC(Cn1cncn1)(Cn1nnc2ccc(F)cc21)c1ccc(F)cc1F (racemic)	12.5 µg/mL (≈ 33.4 µM)	> 100 µg/mL	> 100 µg/mL	25 µg/mL (≈ 66.8 µM)	6.2 µg/mL (≈ 16.6 µM)	> 100 µg/mL
Cc1cc2nnn(CC(O)(Cn3cncn3)c3ccc(F)cc3F)c2cc1C (racemic)	12.5 µg/mL (≈ 32.5 µM)	100 µg/mL (≈ 260 µM)	> 100 µg/mL	50 µg/mL (≈ 130 µM)	50 µg/mL (≈ 130 µM)	100 µg/mL (≈ 260 µM)
OC(Cn1cncn1)(Cn1nnc2cc(Cl)ccc21)c1ccc(F)cc1F (racemic)	6.2 µg/mL (≈ 15.9 µM)	50 µg/mL (≈ 128 µM)	> 100 µg/mL	12.5 µg/mL (≈ 32 µM)	6.2 µg/mL (≈ 15.9 µM)	25 µg/mL (≈ 64 µM)
OC(Cn1cncn1)(Cn1nnc2ccc(Cl)cc21)c1ccc(F)cc1F (racemic)	6.2 µg/mL (≈ 15.9 µM)	> 100 µg/mL	100 µg/mL (≈ 256 µM)	100 µg/mL (≈ 256 µM)	100 µg/mL (≈ 256 µM)	> 100 µg/mL
Cc1ccc2nnn(CC(O)(Cn3cncn3)c3ccc(F)cc3F)c2c1 (racemic)	25 µg/mL (≈ 67.5 µM)	50 µg/mL (≈ 135 µM)	25 µg/mL (≈ 67.5 µM)	6.2 µg/mL (≈ 16.7 µM)	6.2 µg/mL (≈ 16.7 µM)	12.5 µg/mL (≈ 33.8 µM)
COc1ccc2c(c1)nnn2CC(O)(Cn1cncn1)c1ccc(F)cc1F (racemic)	12.5 µg/mL (≈ 32.4 µM)	50 µg/mL (≈ 129 µM)	50 µg/mL (≈ 129 µM)	12.5 µg/mL (≈ 32.4 µM)	25 µg/mL (≈ 64.7 µM)	100 µg/mL (≈ 259 µM)
Cc1cc2nn(CC(O)(Cn3cncn3)c3ccc(F)cc3F)nc2cc1C (racemic)	1.6 µg/mL (≈ 4.16 µM)	25 µg/mL (≈ 65 µM)	100 µg/mL (≈ 260 µM)	3.1 µg/mL (≈ 8.06 µM)	6.2 µg/mL (≈ 16.1 µM)	25 µg/mL (≈ 65 µM)
OC(Cn1cncn1)(Cn1nnc2ccccc21)c1ccc(F)cc1F (racemic)	0.8 µg/mL (≈ 2.25 µM)	25 µg/mL (≈ 70.2 µM)	25 µg/mL (≈ 70.2 µM)	0.8 µg/mL (≈ 2.25 µM)	1.6 µg/mL (≈ 4.49 µM)	> 100 µg/mL
C[C@@H]1[C@H](O)[C@@H](C)/C=C/C=C/C=C/C=C/C=C/C=C/C=C/[C@H](O[C@@H]2O[C@H](C)[C@@H](O)[C@H](N)[C@@H]2O)C[C@@H]2O[C@](O)(C[C@@H](O)C[C@@H](O)[C@H](O)CC[C@@H](O)C[C@@H](O)CC(=O)O[C@H]1C)C[C@H](O)[C@H]2C(=O)O [AMPHOTERICIN B]	0.4 µg/mL (≈ 0.433 µM)	0.4 µg/mL (≈ 0.433 µM)	0.4 µg/mL (≈ 0.433 µM)	0.4 µg/mL (≈ 0.433 µM)	0.4 µg/mL (≈ 0.433 µM)	0.8 µg/mL (≈ 0.866 µM)
OC(Cn1cncn1)(Cn1cncn1)c1ccc(F)cc1F [FLUCONAZOLE]	0.8 µg/mL (≈ 2.61 µM)	50 µg/mL (≈ 163 µM)	50 µg/mL (≈ 163 µM)	0.8 µg/mL (≈ 2.61 µM)	0.8 µg/mL (≈ 2.61 µM)	> 100 µg/mL
